In this experiment the test system is 699152-130-R-J1-PDC complex spheroid growth. As to the kind of experiment: Anticancer human tumor 699152-130-R-J1-PDC patient-derived pancreatic carcinoma cell line growth inhibition [AhR]. Conditions: for viability, T/C: stronger effect = lower value. An excerpt: Multicellular complex tumor spheroid response to aryl hydrocarbon receptor antagonists in combination with a variety of drugs and investigational agents in selected tumor cell lines
The current study was undertaken to assess response to aryl hydrocarbon receptor antagonists in combination with standard-of-care drugs and investigational agents in solid tumor complex spheroid models. Complex spheroids include a stromal component modeled by human endothelial cells (HUVEC) and fibroblasts modeled by human mesenchymal stem cells (MSCs). The concentration ranges selected for each drug and investigational agent were based upon clinically achievable concentrations if the clinical Cmax of the agent was known.
Compounds. The drugs and investigational agents: BAY 2416964 (NSC825713), GNF351 (NSC835774), CH-223191 (NSC835775), CPI-455 (NSC825282), aza-TdCyd (NSC777586), decitabine (NSC127716), belinostat (NSC758774), entinostat (NSC756642), pevonedistat (NSC761192), tazemetostat (NSC777109), talazoparib (NSC765396), olaparib (NSC753686), selinexor (NSC780203), nedisertib (M3814, NSC802822), bortezomib (NSC756655), venetoclax (NSC766270), doxorubicin (NSC123127), elimusertib (BAY189344, NSC800525), ceralasertib (AZD6738, NSC777638), TAK-243 (NSC785004), alisertib (NSC759677), etoposide (NSC141540), topotecan (NSC609699), eribulin (NSC707389), gemcitabine (NSC613327), carboplatin (NSC241240), cisplatin (NSC119875), and SN-38 (NSC673596) were obtained from the National Cancer Institute (NCI) Developmental Therapeutics Program Chemical Repository (32). The FDA-approved anticancer drug set is available from the Developmental Therapeutics Program at https://dtp.cancer.gov/organization/dscb/obtaining/available plates.htm. […] The stock solutions were prepared in dimethyl sulfoxide (DMSO, Sigma-Aldrich, St. Louis, MO, cat. D2650), except for the platinum compounds which were prepared in saline (Quality Biological, Gaithersburg, MD, cat. 114-055-101), at 800-fold the tested concentration and stored at -70 degrees C prior to their use. All drugs and investigational agents were tested over a range starting from a high concentration at or near the clinical Cmax and decreasing in half-log increments. If the clinical Cmax for an agent had not been determined, the highest concentration tested was 10 microM (Table 1).
Cell Culture. All cells were maintained in an incubator at 37 degrees C and 5% CO2 with 95% humidity. The PDC lines were cultured according to standard operating procedures established by the NCI PDMR (https://pdmr.cancer.gov). Briefly, all PDCs were thawed and cultured in Matrigel-coated flasks prepared with a working solution of 1X Ham's F-12 nutrient mix, without supplementation (Invitrogen, Waltham, MA, cat. 11765054), 100 U/mL penicillin-streptomycin (Invitrogen, cat. 15140122), and 2.5% Matrigel (Corning Inc., Corning, NY, cat. 354248) for the first three passages. All PDCs were cultured in complete DMEM/F-12 media containing advanced DMEM/F-12 (Invitrogen, cat. 12634028), 4.9% defined fetal bovine serum, heat inactivated (HyClone Laboratories Inc., Logan, UT, cat. SH30070.03HI), 389 ng/mL hydrocortisone (Sigma-Aldrich, cat. H4001), 9.7 ng/mL human EGF recombinant protein (Invitrogen, cat. PHG0313), 23.4 microg/mL adenine (Sigma-Aldrich, cat. A2786), 97.3 U/mL penicillin-streptomycin (Invitrogen, cat. 15140122), 1.9 mM L-glutamine (Invitrogen, cat. 25030081), and 9.7 microM Y-27632 dihydrochloride (Tocris Bioscience, Bristol, United Kingdom, cat. 1254). The PDCs were cultured in complete DMEM/F12 media without 10 microM Y-27632 dihydrochloride for at least two passages prior to the screen. The established cell lines NCI-H1341 and […] were cultured in DMEM/F-12, HEPES (Invitrogen, cat. 11330032), 5% defined fetal bovine serum (HyClone Laboratories Inc., cat. SH30070.03), ITS premix universal culture supplement [insulin (5 microg/mL), transferrin (5 microg/mL), and selenious acid (5 ng/mL)] […]

Where [1] appears, read: curve of first compound, second compound 0.1 µM.
Setting [2] is: curve of first compound, second compound 0.316 µM.
Setting [3] is: curve of first compound, second compound 1 µM.
[4] abbreviates: curve of first compound, second compound 3.16 µM.
Where [5] appears, read: curve of first compound, second compound 10 µM.

A value given as a limit tells only on which side of the number the result lay.
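Also: compound exposure lasted 7 days after spheroids had grown for 3 days.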

By IC50 is commonly meant the midpoint of a concentration-inhibition curve. As usually defined, the viability, T/C is the ratio of treated to control. For `CCN(c1cc(-c2ccc(CN3CCOCC3)cc2)cc(C(=O)NCc2c(C)cc(C)[nH]c2=O)c1C)C1CCOCC1` + Cc1cncc(-c2nc(NCCc3c[nH]c4ccccc34)c3ncn(C(C)C)c3n2)c1, the IC50 under setting [1] was > 3 µM; the 50% inhibitory concentration (IC50) under setting [2] is > 3 µM; the half-inhibitory concentration (IC50) under setting [3] is > 3 µM; the IC50 under setting [4] was > 3 µM; the 50% inhibitory concentration (IC50) under setting [5] is < 0.00949 µM. The viability, T/C was 101% (second compound 0.1 µM, first compound 0.00949 µM); 110% (second compound 0.1 µM, first compound 0.03 µM); 113% (second compound 0.1 µM, first compound 0.0949 µM); 120% (second compound 0.1 µM, first compound 0.3 µM); 98.2% (second compound 0.1 µM, first compound 0.949 µM); 120% (second compound 0.1 µM, first compound 3 µM). Also, the viability, T/C (second compound 0.316 µM, first compound 0.00949 µM) is 88.9%; the viability, T/C (second compound 0.316 µM, first compound 0.03 µM) was 94.4%; the viability, T/C (second compound 0.316 µM, first compound 0.0949 µM) is 112%; the viability, T/C (second compound 0.316 µM, first compound 0.3 µM) was 98.9%; the viability, T/C (second compound 0.316 µM, first compound 0.949 µM) is 103%; the viability, T/C (second compound 0.316 µM, first compound 3 µM) is 98.7%. The viability, T/C runs as follows: (second compound 1 µM, first compound 0.00949 µM) 121%; (second compound 1 µM, first compound 0.03 µM) 116%; (second compound 1 µM, first compound 0.0949 µM) 116%; (second compound 1 µM, first compound 0.3 µM) 131%; (second compound 1 µM, first compound 0.949 µM) 119%; (second compound 1 µM, first compound 3 µM) 112%. Also, the viability, T/C by setting is: (second compound 3.16 µM, first compound 0.00949 µM) 110%; (second compound 3.16 µM, first compound 0.03 µM) 106%; (second compound 3.16 µM, first compound 0.0949 µM) 114%; (second compound 3.16 µM, first compound 0.3 µM) 116%; (second compound 3.16 µM, first compound 0.949 µM) 114%; (second compound 3.16 µM, first compound 3 µM) 112%. The viability, T/C by setting is: (second compound 10 µM, first compound 0.00949 µM) 28.7%; (second compound 10 µM, first compound 0.03 µM) 30.9%; (second compound 10 µM, first compound 0.0949 µM) 28.9%; (second compound 10 µM, first compound 0.3 µM) 23.5%; (second compound 10 µM, first compound 0.949 µM) 22.4%; (second compound 10 µM, first compound 3 µM) 11.3%.

With `CC(CO)NC(=O)c1cc(-c2ccc(Cl)cc2)nn(-c2cnn(C)c2)c1=O` (configuration not stated), under “compound 0.1 µM”, the viability, T/C was 92.1% [middle of 21 runs]. Besides, under “compound alone, run of 07/12/2022”, the half-inhibitory concentration (IC50) is > 10 µM.

`COc1cc(C2c3cc4c(cc3C(OC3OC5COC(C)OC5C(O)C3O)C3COC(=O)C23)OCO4)cc(OC)c1O` (configuration not stated) + Cc1cncc(-c2nc(NCCc3c[nH]c4ccccc34)c3ncn(C(C)C)c3n2)c1: the IC50 reads like this: under setting [1], > 10 µM; under setting [2], 7.66 µM; under setting [3], 9.21 µM; under setting [4], 2.7 µM; under setting [5], < 0.0316 µM. For the same compound, the viability, T/C runs as follows: (second compound 0.1 µM, first compound 0.0316 µM) 106%; (second compound 0.1 µM, first compound 0.1 µM) 98%; (second compound 0.1 µM, first compound 0.316 µM) 70.1%; (second compound 0.1 µM, first compound 1 µM) 70.3%; (second compound 0.1 µM, first compound 3.16 µM) 58%; (second compound 0.1 µM, first compound 10 µM) 52.6%. Moreover, the viability, T/C (second compound 0.316 µM, first compound 0.0316 µM) is 104%; the viability, T/C (second compound 0.316 µM, first compound 0.1 µM) was 89.5%; the viability, T/C (second compound 0.316 µM, first compound 0.316 µM) is 80.2%; the viability, T/C (second compound 0.316 µM, first compound 1 µM) is 67.4%; the viability, T/C (second compound 0.316 µM, first compound 3.16 µM) was 58.9%; the viability, T/C (second compound 0.316 µM, first compound 10 µM) was 46.8%. Also, the viability, T/C was 99.6% (second compound 1 µM, first compound 0.0316 µM); 97.2% (second compound 1 µM, first compound 0.1 µM); 74.9% (second compound 1 µM, first compound 0.316 µM); 77.5% (second compound 1 µM, first compound 1 µM); 63.6% (second compound 1 µM, first compound 3.16 µM); 47.4% (second compound 1 µM, first compound 10 µM). In addition, the viability, T/C runs as follows: (second compound 3.16 µM, first compound 0.0316 µM) 106%; (second compound 3.16 µM, first compound 0.1 µM) 91.3%; (second compound 3.16 µM, first compound 0.316 µM) 70.1%; (second compound 3.16 µM, first compound 1 µM) 60.6%; (second compound 3.16 µM, first compound 3.16 µM) 48.5%; (second compound 3.16 µM, first compound 10 µM) 41.7%. The viability, T/C runs as follows: (second compound 10 µM, first compound 0.0316 µM) 0.93%; (second compound 10 µM, first compound 0.1 µM) 1.13%; (second compound 10 µM, first compound 0.316 µM) 1.96%; (second compound 10 µM, first compound 1 µM) 1.2%; (second compound 10 µM, first compound 3.16 µM) 1.07%; (second compound 10 µM, first compound 10 µM) 4.92%.
